# PMC4490465 (2015)
# Key:
# [1] = system: 3 bp mismatch (DNA, hairpin) CAGTCATGAGCATGGATGCGGAAAAACCGCATCCATGCTCATGACTG; assay: SPR, steady state, 1:1 fit; conditions: HBS-EP + 0.1% DMSO, pH 7.4, 25 °C
# [2] = system: Cognate DNA sequence (DNA, hairpin) CGCATATGGTATGTGCCGCGGAAAAACCGCGGCACATACCATATGCG; assay: SPR, steady state, 1:1 fit; conditions: HBS-EP + 0.1% DMSO, pH 7.4, 25 °C
Kd [1] [nM],Kd [2] [nM],Kd ([2]; apparent) [nM],Structure (SMILES)
314 ± 160,1.6 ± 0.1,–,CC(=O)Nc1cn(C)c(C(=O)Nc2cn(C)c(C(=O)Nc3cc(C(=O)Nc4cc(C(=O)NCCCC(=O)Nc5cc(C(=O)Nc6cc(C(=O)Nc7cc(C(=O)Nc8cc(C(=O)NCCC(=O)NCCCN(C)C)n(C)c8)n(C)c7)n(C)c6)n(C)c5)n(C)c4)n(C)c3)n2)n1
–,–,9.3 ± 1.6,CN(C)CCCNC(=O)CCNC(=O)c1cc(NC(=O)c2cc(NC(=O)c3cc(NC(=O)c4cc(NC(=O)CCCNC(=O)c5cc(NC(=O)c6cc(NC(=O)c7nc(NC(=O)c8nc(NC(=O)CCOCCOCCOCCNC(=O)[C@@H](N)CSSC(C)(C)C)cn8C)cn7C)cn6C)cn5C)cn4C)cn3C)cn2C)cn1C
